Entries after “also recorded” stand apart in the source; their conditions may differ. Read-outs that look alike come from different tables or passages of the source.
Experiments:
in vitro = experiment: in vitro
Protocol: The parallel artificial membrane permeability assay (PAMPA) is used as a non-cell-based in vitro assay to predict BBB penetration and is carried out in a coated 96-well membrane filter. In our assays, the filter membrane of the donor plate was coated with PBL (Polar Brain Lipid, Avanti, Denver, CO, USA) in dodecane (4 µL of 20 mg mL^−1 PBL in dodecane), and the acceptor well was filled with 300 µL of phosphate buffered saline (PBS) (pH 7.4; VA). The tested compounds were first dissolved in DMSO, and the resulting mixture was diluted with PBS (pH 7.4) to reach the final concentration (40–100 µM) in the donor well. […] Three hundred microliters of the donor solution (VD) were added to the donor wells, and the donor filter plate was carefully placed onto the acceptor plate to ensure that the coated membrane was “in contact” with both the donor solution and the acceptor buffer. The test compound diffused from the donor well through the polar brain lipid membrane (area = 0.28 cm^2) to the acceptor well. The concentration of the tested compound in both the donor and acceptor wells was assessed after 3, 4, 5, and 6 h of incubation, respectively, in quadruplicate using a UV plate reader Synergy HT (Biotek, Winooski, VT, USA) at the maximum absorption wavelength of each compound. Additionally, solutions at the theoretical equilibrium of the given compound (i.e., the theoretical concentration if the donor and acceptor compartment were simply combined) were also prepared.

A549 cells = experiment: Mitotic activity (Ki67 index) by immunolabelling and confocal microscopy; format: cell-based, human; conditions: 24 h, control 90.6 ± 5.7%
Protocol: The studied biscoumarin derivatives were added to cells seeded on 12-well μ-Chamber slides for 24 h. After cultivation with the derivatives, the samples (both the control without the derivatives and experimental groups) were washed with a 0.1 M PBS solution buffer to remove all non-cell-absorbed derivative residues and fixed with 4% paraformaldehyde for 20 min at RT. Alternatively, cells were incubated with Mitotracker Red (0.5 µM; Thermo Fisher Scientific, Waltham, MA, USA) for 30 min at 37 °C, washed with 0.1 M PBS, and fixed with 4% paraformaldehyde for 20 min at RT. For the quantification of proliferative activity and programmed cell death, samples were incubated overnight at 4 °C with the mouse anti-Ki67 antibody (NCL-L-Ki67-MM1, 1:100, Leica Biosystems, Wetzlar, Germany) and rabbit anti-cleaved PARP (cat. no. 94885, 1:100, Cell Signaling, Danvers, MA, USA) diluted in 0.1 M PBS containing 1% normal donkey serum (Jackson Immunoresearch, Cambridgeshire, Great Britain) and 0.3% Triton-X 100. […]
All samples were evaluated using a Leica TCS SP5X confocal system (Leica Microsystems, Mannheim, Germany). The biscoumarin derivatives were visualized in cells using a 405 nm laser, and the fluorescence was captured in the range of 420–480 nm with identical exposure parameters for all samples. […] Microphotographs were taken with a 40× objective lens (NA = 0.75; voxel size 223 × 223 nm) and a 63× oil lens (NA = 1.4; voxel size 171 × 171 nm); the images were captured and analyzed using LAS AF software (Leica Microsystems, Wetzlar, Germany).
The proliferative activity of cells incubated with the studied derivatives was expressed as a Ki67 index. In all samples (n = 3 samples per each experimental group), the number of Ki67^+ nuclei was calculated in groups of 100 randomly selected cells. […]

CCD-18Co fibroblasts = experiment: MTT assay, CCD-18Co; format: cell-based; conditions: for IC50: Homo sapiens, CCD-18Co
Protocol: Human lung carcinoma cell line A549 and CCD-18Co colon fibroblasts were purchased from the American Type Culture Collection (ATCC, Rockville, MD, USA). The A549 cells were cultured in a complete RPMI-1640 medium (Sigma-Aldrich, St. Louis, MO, USA), and CCD-18Co cells were cultured in an MEM medium (PAN-Biotech GmbH, Aidenbach, Germany). The media were supplemented with 10% fetal bovine serum (FBS; Biosera, Nuaille, France) and antibiotics (1% Antibiotic-Antimycotic 100× and 50 × 10^−3 g l^−1 gentamicin; Biosera) at 37 °C, 95% humidity, and 5% CO2.
Prior to the selected treatments, cells were seeded on 12-well μ-Chamber slides (ibidi GmbH, Martinsried, Germany) and 6 and/or 96-well plates (TPP, Trasadingen, Switzerland) and left to settle for 24 h. The biscoumarin derivative solutions (at concentrations ranging from 10–100 µM) were then added to cells for 24 or 48 h, and analysis was subsequently performed.
MTT assays were performed in order to evaluate changes in the metabolic activity of cells that had occurred as a consequence of treatment with the biscoumarin derivatives. A549 cells (15 × 10^3 cells/cm^2) and CCD-18Co ([…]) were seeded in 96-well microplates. The cells were treated for 24 and 48 h with different concentrations (10, 25, 35, 50, 65, 75, and 100 µM) of the derivatives. After the treatment, the MTT (3-(4,5-dimethylthiazol-2-yl)-2,5-diphenyltertrazolium bromide) solution in PBS (5 mg mL^−1) was added to each well. […]. The absorbance of formazan (λ = 584 nm) was measured using a BMG FLUOstar Optima spectrometer (BMG Labtech GmbH, Offenburg, Germany). The results were evaluated as percentages of the absorbance of the untreated control. Results are presented as the average percentage of cells from three independent experiments. IC50 values for the derivatives were extrapolated from a sigmoidal fit (dose–response curve) to the metabolic activity data using OriginPro 8.5.0 SR1 (OriginLab Corp., Northampton, MA, USA).

## COC(=O)Cc1cc(=O)oc2cc(OCCCCCCCCN3CCN(CCNC(=O)Cc4cc(=O)oc5cc(O)ccc45)CC3)ccc12 [12e, Methyl 2-[7-({2-[4-(2-{[2-(7-hydroxy-2-oxo-2H-4-chromenyl)acetyl]amino}etyl)piperazino]oktyl}oxy)-2-oxo-2H-4-chromenyl]acetate]
In vitro; PAMPA
  BBB permeability prediction (in words): positive outcome; also recorded: high probability of BBB permeability; also recorded: high probability to cross the BBB
In vitro; PAMPA, pH 7.4
  Papp: 13.4 ± 3.56 ×10⁻⁶ cm/s
In vitro; classification from PAMPA-BBB Pe
  CNS Predicted Availability: CNS+ (CNS+: high BBB permeation predicted with Pe (×10^−6 cm s^−1) > 4.0)
A549 cells; 35 µM
  Number of proliferating cells (Ki67 index): 59.4 ± 2.6%
A549 cells; 65 µM
  Number of proliferating cells (Ki67 index): 16.5 ± 12.9%
CCD-18Co fibroblasts; 24 or 48 h
  Metabolic activity of CCD-18Co cells (in words): significantly reduced metabolic activity
CCD-18Co fibroblasts; 24 h, read-out: IC50 CCD-18Co 24 h
  IC50: > 100 µM
CCD-18Co fibroblasts; read-out: IC50 CCD-18Co 48 h, 48 h
  IC50: > 100 µM
CCD-18Co fibroblasts; time not stated, read-out: IC50 CCD-18Co
  IC50: > 100 µM
